Results as given in ChEMBL document CHEMBL1201862, “PubChem BioAssay data set” (2004).
Activity calls are given as the source filed them.

How the values were obtained:
[1] = C. albicans growth with fluconazole, confirmation, fluorescence, retest (AID 2467); format: functional, cell-based
[2] = NIH-3T3 fibroblast cytotoxicity, dose response, cytotoxicity control, cell-based, fluorescence, Alamar Blue, secondary assay (AID 2327); format: functional;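 further: NIH-3T3 mouse fibroblasts cultured with fluconazole at 8 µg/mL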
[3] = growth suppression of PTEN-null colon cells, dose response, cell-based, HCT116 PTEN knockout (AID 1047); format: functional;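 further: HCT116 colon tumor cells with PTEN knocked out; cells exposed to compound for 60 hours before readout; potency for loss of cell viability measured by luminescence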
[4] = growth suppression of beta-catenin-knockout colon cells, dose response, cell-based, HCT116, human colon tumor (AID 1045); format: functional;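 further: HCT116 colon tumor cells with beta catenin knocked out; cells exposed to compound for 60 hours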
[5] = target: T1, Protein skinhead-1 (Caenorhabditis elegans, UniProt P34707); format: functional
T1 sequence (P34707 whole entry): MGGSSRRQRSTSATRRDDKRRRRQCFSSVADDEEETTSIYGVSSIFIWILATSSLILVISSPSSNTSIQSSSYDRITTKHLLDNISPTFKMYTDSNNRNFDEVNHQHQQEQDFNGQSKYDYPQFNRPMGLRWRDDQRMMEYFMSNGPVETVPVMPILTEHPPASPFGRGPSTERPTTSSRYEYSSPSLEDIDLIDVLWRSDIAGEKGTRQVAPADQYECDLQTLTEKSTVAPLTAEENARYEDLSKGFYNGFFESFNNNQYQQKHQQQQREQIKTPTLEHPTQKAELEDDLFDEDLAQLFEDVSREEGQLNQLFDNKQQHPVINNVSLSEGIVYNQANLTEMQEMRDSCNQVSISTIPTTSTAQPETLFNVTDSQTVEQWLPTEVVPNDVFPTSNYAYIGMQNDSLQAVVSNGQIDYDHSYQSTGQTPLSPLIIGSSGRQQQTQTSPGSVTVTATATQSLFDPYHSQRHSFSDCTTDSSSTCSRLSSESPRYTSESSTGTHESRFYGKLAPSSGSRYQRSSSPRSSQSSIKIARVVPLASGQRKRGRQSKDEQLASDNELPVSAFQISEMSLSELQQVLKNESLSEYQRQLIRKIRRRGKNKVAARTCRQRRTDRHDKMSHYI

[6] = target: T2, Zinc finger protein mex-5 (Caenorhabditis elegans, UniProt Q9XUB2); assay: MEX-5/TCR-2 RNA interaction inhibitors, dose response, biochemical, C. elegans, fluorescence polarization (AID 1960)
T2 sequence (Q9XUB2 whole entry): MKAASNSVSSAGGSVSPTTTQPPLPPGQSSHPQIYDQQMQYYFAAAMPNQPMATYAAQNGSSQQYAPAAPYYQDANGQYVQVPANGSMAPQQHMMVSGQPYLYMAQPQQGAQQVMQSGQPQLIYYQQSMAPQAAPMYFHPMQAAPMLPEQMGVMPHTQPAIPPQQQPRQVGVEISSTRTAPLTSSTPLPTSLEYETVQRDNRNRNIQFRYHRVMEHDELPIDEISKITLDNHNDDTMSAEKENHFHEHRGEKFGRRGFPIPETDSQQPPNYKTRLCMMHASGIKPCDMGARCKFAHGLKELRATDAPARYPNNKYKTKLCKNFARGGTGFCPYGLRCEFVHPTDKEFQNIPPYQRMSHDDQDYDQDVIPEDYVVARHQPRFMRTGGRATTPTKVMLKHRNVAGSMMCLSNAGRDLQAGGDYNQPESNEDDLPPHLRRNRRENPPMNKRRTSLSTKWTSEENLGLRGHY

[7] = target: T3, RNA-binding protein pos-1 (Caenorhabditis elegans, UniProt G5EF15); assay: inhibitors of POS-1/mex-3 RNA binding, dose response, biochemical, fluorescence polarization (AID 1964);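 further: purified POS-1 fused to maltose binding protein made in E. coli; potency of compounds blocking POS-1 binding to fluorescent RNA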
T3 sequence (G5EF15 whole entry): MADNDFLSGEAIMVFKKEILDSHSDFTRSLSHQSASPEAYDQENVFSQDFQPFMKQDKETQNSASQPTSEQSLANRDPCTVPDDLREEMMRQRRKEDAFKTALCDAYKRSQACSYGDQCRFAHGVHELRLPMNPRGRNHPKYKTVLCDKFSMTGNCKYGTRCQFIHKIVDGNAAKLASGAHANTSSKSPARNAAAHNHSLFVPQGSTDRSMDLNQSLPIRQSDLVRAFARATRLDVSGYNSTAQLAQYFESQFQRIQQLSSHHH

[8] = microbe, parasite or virus in culture; format: functional; details: Mycobacterium tuberculosis
[9] = target: Cytochrome P450 2C9 (Homo sapiens, UniProt P11712)
[10] = target: T4, Cytochrome P450 1A2 (Homo sapiens, UniProt P05177);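 further: PubChem cytochrome P450 panel assay, CYP1A2 panel member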
T4 sequence (P05177 whole entry): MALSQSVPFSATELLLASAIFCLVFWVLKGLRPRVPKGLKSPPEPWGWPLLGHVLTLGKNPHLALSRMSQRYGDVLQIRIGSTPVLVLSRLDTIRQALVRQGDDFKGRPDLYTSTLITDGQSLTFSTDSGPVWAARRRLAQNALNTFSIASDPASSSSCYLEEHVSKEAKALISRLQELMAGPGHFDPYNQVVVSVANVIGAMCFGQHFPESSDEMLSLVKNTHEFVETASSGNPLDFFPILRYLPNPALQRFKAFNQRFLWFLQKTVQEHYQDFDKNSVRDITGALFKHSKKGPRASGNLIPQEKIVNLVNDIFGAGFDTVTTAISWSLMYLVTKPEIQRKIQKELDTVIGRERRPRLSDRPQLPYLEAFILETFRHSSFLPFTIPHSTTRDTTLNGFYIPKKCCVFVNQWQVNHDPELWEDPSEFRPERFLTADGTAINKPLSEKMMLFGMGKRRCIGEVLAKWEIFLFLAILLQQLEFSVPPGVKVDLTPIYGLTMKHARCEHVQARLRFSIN

[11] = control 3'UTR Renilla luciferase suppression, dose response, counter-screen for Shn3 inhibitor project, cell-based, Clone20-Shn3RL, cherry-picked (AID 624133); format: functional
[12] = Shn3 3'UTR reporter inhibitors, dose response, cell-based, Clone20 osteoblasts, firefly luciferase, cherry-picked (AID 624132); format: functional;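 further: firefly luciferase luminescence from reporter carrying the Shn3 3'UTR in osteoblasts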
[13] = target: Cytochrome P450 3A4 (Homo sapiens, UniProt P08684);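 further: CYP3A4 tested as one member of a cytochrome P450 panel screen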
[14] = HepG2 cell cytotoxicity, dose response, cytotoxicity control for Shn3 inhibitor project, CellTiter-Glo, cherry-picked (AID 624134); format: functional, cell-based

Cytochrome P450 2C9, sequence (P11712 whole entry): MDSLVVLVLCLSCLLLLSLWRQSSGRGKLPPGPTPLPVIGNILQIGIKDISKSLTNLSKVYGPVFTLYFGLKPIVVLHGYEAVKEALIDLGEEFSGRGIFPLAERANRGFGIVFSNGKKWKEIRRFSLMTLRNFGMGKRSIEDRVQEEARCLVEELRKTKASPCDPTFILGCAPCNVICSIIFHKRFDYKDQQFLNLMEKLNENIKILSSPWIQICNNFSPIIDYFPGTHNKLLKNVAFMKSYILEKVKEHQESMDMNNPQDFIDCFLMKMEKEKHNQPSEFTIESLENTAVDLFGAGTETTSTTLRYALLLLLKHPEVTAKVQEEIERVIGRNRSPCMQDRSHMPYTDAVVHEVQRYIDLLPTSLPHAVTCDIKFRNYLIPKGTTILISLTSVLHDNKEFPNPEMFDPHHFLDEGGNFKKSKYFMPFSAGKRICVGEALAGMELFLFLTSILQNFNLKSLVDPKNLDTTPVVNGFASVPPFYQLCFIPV
Cytochrome P450 3A4, sequence (P08684 whole entry): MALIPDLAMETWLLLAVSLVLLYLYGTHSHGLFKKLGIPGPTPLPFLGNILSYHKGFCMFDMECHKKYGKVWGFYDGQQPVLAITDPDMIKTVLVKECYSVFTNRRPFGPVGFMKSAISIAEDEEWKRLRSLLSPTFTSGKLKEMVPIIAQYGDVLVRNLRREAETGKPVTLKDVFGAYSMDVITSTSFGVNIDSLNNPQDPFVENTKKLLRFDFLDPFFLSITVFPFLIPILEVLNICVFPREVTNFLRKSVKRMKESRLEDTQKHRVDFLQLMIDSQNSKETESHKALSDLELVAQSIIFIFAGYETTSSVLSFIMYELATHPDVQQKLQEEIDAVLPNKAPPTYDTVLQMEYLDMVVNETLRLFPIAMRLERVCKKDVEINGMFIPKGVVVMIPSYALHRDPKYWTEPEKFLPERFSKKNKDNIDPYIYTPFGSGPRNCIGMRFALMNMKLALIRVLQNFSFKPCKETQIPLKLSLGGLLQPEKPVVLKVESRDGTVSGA

Which results are given for CCN(CC)c1ccc(/C=N/Nc2nc3ccccc3[nH]2)cc1?
EC50 [1]: > 38 µM (not active); EC50 [2]: 6.64 µM (active); EC50 [3]: 2.96 µM (active); EC50 [4]: 2.76 µM (active)

With CO/N=C/C(=C\Nc1ccc(Cl)cc1Cl)c1ncc(C(F)(F)F)cc1Cl as the compound, how does the EC50 [2] read?
Its EC50 is > 160 µM (inconclusive).

For Cc1cc2cc(CNC(=O)CCC(=O)O)ccc2n1C, which IC50 [5] is on record?
The IC50 was > 100 µM (inactive).

With Cc1ccc(NC(=O)/C(C#N)=C/c2ccc(C)s2)c(C)c1 as the compound, how does the EC50 [6] read?
The EC50 was 9.25 µM (active).

And the EC50 [7]?
Its EC50 is 64.2 µM (inconclusive).

Which IC50 [5] does the source give for Cc1ccc(C2=NN(S(C)(=O)=O)C(c3ccc4c(c3)OCO4)C2)cc1 (stereo not given) here?
Its IC50 is > 100 µM (inactive).

For c1ccc(Cn2nnc3c(NCCN4CCOCC4)ncnc32)cc1, which IC50 [5] is on record?
Its IC50 is > 100 µM (inactive).

For CC1(C)CC(=O)C=C(Nc2ccc([N+](=O)[O-])cc2)C1, which EC50 [1] is on record?
Its EC50 is 2.93 µM (active).

What about the EC50 [2] of the same compound?
Its EC50 is > 160 µM (inactive).

What does the source list for COc1cccc(C(=O)NCC(=O)NNc2ncnc(N)c2[N+](=O)[O-])c1?
EC50 [6]: < 0.06 µM (inconclusive); EC50 [7]: > 300 µM (inconclusive)

With Nc1c(NCCC2=CCCCC2)c(=O)[nH]c(=O)n1Cc1ccccc1 as the compound, how does the EC50 [6] read?
Its EC50 is 13.9 µM (active).

And the EC50 [7]?
The EC50 was 23.2 µM (active).

Which IC50 [5] does the source give for CC(C)Cn1c(N)c(C(=O)CSc2nnnn2C)c(=O)n(C)c1=O here?
The IC50 was > 100 µM (inactive).

With Cc1ccc2c(c1)C(c1ccc(N3CCOCC3)cc1)=NNC(c1cccs1)=N2 as the compound, how does the CC50 [8] read?
The CC50 was 38.6 µM (active).

For Cc1ccc(-c2c(C)nn3c(N4CCOCC4)cc(C)nc23)cc1, which IC50 [5] is on record?
The IC50 was > 100 µM (inactive).

For COc1ccc(OC)c(S(=O)(=O)N2CCC(C(=O)Nc3ccc(C)c(C)c3)CC2)c1, which AC50 [9] is on record?
Its AC50 is “inconclusive”.

And the AC50 [10]?
The AC50 was 12.6 µM (inconclusive).

Which results are given for CCN(CC)C(=O)C1CCN(S(=O)(=O)c2ccc3oc4ccccc4c3c2)CC1?
AC50 [9]: inconclusive; AC50 [11]: 10.1 µM (active); AC50 [12]: 3.96 µM (active); AC50 [13]: 3.98 µM (inconclusive); AC50 [14]: > 70 µM (inactive)

For CN(C)c1ccc(/C=C(\C#N)C(=O)Nc2nc3c(s2)CCN(Cc2ccccc2)C3)cc1, which IC50 [5] is on record?
Its IC50 is > 100 µM (inactive).

Which AC50 [9] does the source give for CCOc1ccc(C(=O)O)cc1OC here?
Its AC50 is “inconclusive”.

For Cc1oncc1-c1csc(-c2ccccc2Cl)n1, which IC50 [5] is on record?
The IC50 was > 100 µM (inactive).

For Cc1nn(-c2ccccc2)c(N)c1C(c1ccc(C(C)C)cc1)c1c(C)nn(-c2ccccc2)c1N, which CC50 [8] is on record?
Its CC50 is > 40 µM (active).
